# Test results as given in paper PMC6801514, “Structural and Functional Characterization of Three Novel Fungal Amylases with Enhanced Stability and pH Tolerance” (International Journal of Molecular Sciences, 2019).
# Molecular target: T1, CfAM (Cordyceps farinosa, UniProt A0A5S8WFA8)
# T1 construct: A, B and C domains (native enzyme lacks CBM20); secreted from Aspergillus oryzae MT3568, mature about 48 kDa, no tag told; two monomers in the asymmetric unit
# T1 sequence (A0A5S8WFA8 19-460): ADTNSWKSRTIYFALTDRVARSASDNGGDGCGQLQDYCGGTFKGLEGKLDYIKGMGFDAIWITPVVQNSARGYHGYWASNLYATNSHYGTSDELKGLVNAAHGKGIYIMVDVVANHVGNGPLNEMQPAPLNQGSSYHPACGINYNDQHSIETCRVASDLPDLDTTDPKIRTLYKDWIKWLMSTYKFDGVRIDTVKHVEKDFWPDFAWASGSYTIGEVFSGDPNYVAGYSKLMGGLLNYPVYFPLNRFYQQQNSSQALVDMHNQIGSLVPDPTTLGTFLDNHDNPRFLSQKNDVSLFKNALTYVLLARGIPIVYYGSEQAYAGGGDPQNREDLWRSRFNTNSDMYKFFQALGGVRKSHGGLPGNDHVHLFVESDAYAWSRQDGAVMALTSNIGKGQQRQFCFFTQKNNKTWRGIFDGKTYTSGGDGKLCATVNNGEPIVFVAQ
# Test: X-ray crystallography, […] Å
# Type: binding
# Details: co-crystallised with 40 mM acarbose, 12% PEG 3350, 0.2 M NaNO3, CAPS pH 11.0; active-site cleft, subsites -4 to +3; ligand formed from acarbose in crystallo crystal (acarbose added, no maltose additio)
compound,measurement,value
OC[C@H]1O[C@H](O[C@H]2[C@H](O)[C@@H](O)C(O)O[C@@H]2CO)[C@H](O)[C@@H](O)[C@@H]1O (stereo partly shown) [maltose],"X-ray crystallography, 1.35 Å",a secondary binding site in domain C was identified and modelled as maltose
